Holding throughout (assay type): cell-based
The target of one test is T1, Gal-4 hPPARγ (Homo sapiens, UniProt P37231).
T1 construct: Plasmids pGal4-hPPARα, pGal4-hPPARγ, pGal4-hPPARδ and pG5-TK-pGL3 were constructed as previously described by Staels, Bart, et al., Nature 1998 Jun; 25
T1 sequence (P37231 238-505 limits assumed): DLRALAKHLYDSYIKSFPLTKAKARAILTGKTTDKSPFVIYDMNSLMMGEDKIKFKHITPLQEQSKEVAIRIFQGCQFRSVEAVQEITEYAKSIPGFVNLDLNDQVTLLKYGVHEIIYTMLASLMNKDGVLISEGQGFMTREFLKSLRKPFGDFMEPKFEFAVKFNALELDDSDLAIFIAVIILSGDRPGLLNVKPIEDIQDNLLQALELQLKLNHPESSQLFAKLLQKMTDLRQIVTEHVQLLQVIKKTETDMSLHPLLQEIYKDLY
The experiment in a line: Gal4-hPPARγ transient transfection reporter assay in Cos cells. The note with it: luciferase reporter, 24 hours with compound, scale 1-5, read-out: Gal-4 hPPAR γ EC50 (scaled number). As for the experimental part: (§1) Construction of recombinant plasmids. Plasmids pGal4-hPPARα, pGal4-hPPARγ, pGal4-hPPARδ and pG5-TK-pGL3 were constructed as previously described by Staels, Bart, et al., Nature 1998 Jun. 25; 393 (6687): 790-793, by Staels (Institut Pasteur de Lille, FR).
(§2) Transient transfection assays. Cos cells were seeded in 60-mm dishes at a density of 5.5×10^5 cells/dish in Dulbecco's modified Eagle's medium (DMEM) supplemented with 10% fetal calf serum (FCS) and incubated at 37° C. for 24 hours before transfection. Cells were transfected in Opti-MEM (Gibco; Invitrogen, Carlsbad, Calif.) without FCS for 3 hours at 37° C., using polyethylenimine, with reporter and expression plasmids. The plasmid pBluescript (Stratagene, La Jolla, Calif.) was used as carrier DNA to set the final amount of DNA to 5.5 μg/dish. The pCMV-b-galactosidase expression plasmid was cotransfected as a control for transfection efficiency. Transfection was stopped by the addition of DMEM supplemented with 10% FCS, and cells were then incubated at 37° C. After 16 hours, cells were trypsinized and seeded in 96-well plates at the density of 2×10^4 cells/well and incubated for 6 hours in 10% FCS-containing DMEM. Cells were then incubated for 24 hours in DMEM containing 0.2% FCS and increasing concentrations of the compound tested or vehicle (DMSO). At the end of the experiment, cells were washed once with ice-cold PBS, lysed and the luciferase and b-galactosidase assays were performed in a luminometer and spectrophotomer. Transfection efficiencies were normalized with the b-galactosidase activity assay. Half-maximal effective concentration (EC50) was estimated using Prism software (GraphPad). All transfection experiments were performed at least three times.
(§3) In the following tables, proprietary compound EC50 values for hPPAR α, β, δ and γ are shown. The EC50 value is the concentration of a drug that induces a response halfway between the baseline and maximum, and is commonly used as a measure of drug potency. EC50 values are reported on a scale of 1 through 5, wherein the value scale is defined for each receptor as follows: […]
(In general: Reporter assays use an easily measured gene product as a stand-in for the process of interest.)

Another test has as its target T2, Gal-4 hPPARβ/δ (Homo sapiens, UniProt Q03181).
T2 construct: Plasmids pGal4-hPPARα, pGal4-hPPARγ, pGal4-hPPARδ and pG5-TK-pGL3 were constructed as previously described by Staels, Bart, et al., Nature 1998 Jun; 25
T2 sequence (Q03181 171-441 limits assumed): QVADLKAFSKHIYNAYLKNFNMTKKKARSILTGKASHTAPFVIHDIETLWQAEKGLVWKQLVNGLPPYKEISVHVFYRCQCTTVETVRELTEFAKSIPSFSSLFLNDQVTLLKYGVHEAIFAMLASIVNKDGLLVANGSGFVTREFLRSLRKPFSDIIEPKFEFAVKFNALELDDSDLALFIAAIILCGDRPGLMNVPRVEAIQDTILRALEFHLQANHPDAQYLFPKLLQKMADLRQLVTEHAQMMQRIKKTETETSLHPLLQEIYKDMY
The experiment in a line: Gal4-hPPARδ transient transfection reporter assay in Cos cells. As to conditions: luciferase reporter, 24 hours with compound, scale 1-5, read-out: Gal-4 hPPAR β/δ EC50 (scaled number). As for the experimental part:
as §1, §2, §3

Another test deals with T3, Gal-4 hPPARα (Homo sapiens, UniProt Q07869).
T3 construct: Plasmids pGal4-hPPARα, pGal4-hPPARγ, pGal4-hPPARδ and pG5-TK-pGL3 were constructed as previously described by Staels, Bart, et al., Nature 1998 Jun; 25
T3 sequence (Q07869 200-468 limits assumed): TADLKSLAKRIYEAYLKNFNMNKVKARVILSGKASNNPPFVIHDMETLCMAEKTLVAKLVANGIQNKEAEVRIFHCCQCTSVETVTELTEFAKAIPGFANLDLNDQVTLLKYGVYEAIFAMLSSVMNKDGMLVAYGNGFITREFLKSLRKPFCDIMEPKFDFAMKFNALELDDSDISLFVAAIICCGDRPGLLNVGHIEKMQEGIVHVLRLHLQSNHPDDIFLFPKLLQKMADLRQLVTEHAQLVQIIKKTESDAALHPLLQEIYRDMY
The test is described as follows: Gal4-hPPARα transient transfection reporter assay in Cos cells. The note with it: luciferase reporter, 24 hours with compound, scale 1-5, read-out: Gal-4 hPPAR α EC50 (scaled number). As for the experimental part:
as §1, §2, §3

Where only a bound is given, the exact number is not on record here.

Here are results for 17 compounds from US20100184815A1 (priority 2008, published 2010).

`CCCn1c(COC(=O)c2ccc(SC(C)(C)C(=O)O)cc2)nn(Cc2ccc(-c3ccccc3)cc2)c1=O` [Compound 163, 2-(4-(((1-(biphenyl-4-ylmethyl)-5-oxo-4-propyl-4,5-dihydro-1H-1,2,4-triazol-3-yl)methoxy)carbonyl)phenylthio)-2-methylpropanoic acid]: the results for the EC50 on Gal-4 hPPARγ, at Gal-4 hPPARβ/δ and on Gal-4 hPPARα were above 1000 nM, above 1000 nM and 1 to 50 nM, respectively.

In the case of `C[C@@H](OC(=O)c1ccc(SC(C)(C)C(=O)O)cc1)c1cn(Cc2cc(C(F)(F)F)cc(C(F)(F)F)c2)nn1` [Compound 140, 4-(1-Carboxy-1-methyl-ethylsulfanyl)-benzoic acid (R)-1-[1-(3,5-bis-trifluoromethyl-benzyl)-1H-1,2,3-triazol-4-yl]-ethyl ester], the EC50 is above 1000 nM at Gal-4 hPPARγ, above 1000 nM at Gal-4 hPPARβ/δ and 1 to 50 nM at Gal-4 hPPARα.

As to `C[C@H](Cc1cn(Cc2ccc(C(C)(C)C)cc2)nn1)OC(=O)c1ccc(SC(C)(C)C(=O)O)cc1` [Compound 138, 4-(1-Carboxy-1-methyl-ethylsulfanyl)-benzoic acid (R)-2-[1-(4-tert-butyl-benzyl)-1H-1,2,3-triazol-4-yl]-1-methyl-ethyl ester], the EC50 on Gal-4 hPPARγ is above 1000 nM; at Gal-4 hPPARβ/δ, above 1000 nM; at Gal-4 hPPARα, 1 to 50 nM.

In the case of `CCCCCCCn1c(C(C)OC(=O)c2ccc(SC(C)(C)C(=O)O)cc2)nn(Cc2ccc(C)cc2)c1=O` (stereo not drawn) [Compound 264, 4-(1-Carboxy-1-methyl-ethylsulfanyl)-benzoic acid 1-[4-heptyl-1-(4-methyl-benzyl)-5-oxo-4,5-dihydro-1H-1,2,4-triazol-3-yl]-ethyl ester], the figures for the EC50 at Gal-4 hPPARγ, on Gal-4 hPPARβ/δ and at Gal-4 hPPARα were 51 to 200 nM, above 1000 nM and below 1 nM, respectively.

On to `CCCCCCn1c(COC(=O)c2ccc(SC(C)(C)C(=O)O)cc2)nn(Cc2ccc(C(F)(C(F)(F)F)C(F)(F)F)cc2)c1=O` [Compound 203, 2-(4-(((4-hexyl-5-oxo-1-(4-(perfluoropropan-2-yl)benzyl)-4,5-dihydro-1H-1,2,4-triazol-3-yl)methoxy)carbonyl)phenylthio)-2-methylpropanoic acid], for which the EC50 on Gal-4 hPPARγ is above 1000 nM; on Gal-4 hPPARβ/δ, above 1000 nM; on Gal-4 hPPARα, 1 to 50 nM.

For the compound `CC(C)(Sc1ccc(C(=O)OCc2cnn(Cc3cccc(C(F)(F)F)c3)c2)cc1)C(=O)O` [Compound 30, 2-methyl-2-(4-(((1-(3-(trifluoromethyl)benzyl)-1H-pyrazol-4-yl)methoxy)carbonyl)phenylthio)propanoic acid], the EC50 is above 1000 nM at Gal-4 hPPARγ, above 1000 nM on Gal-4 hPPARβ/δ and 1 to 50 nM on Gal-4 hPPARα.

For `CCCn1c(COC(=O)c2ccc(OC(C)(C)C(=O)O)cc2)nn(Cc2cc(C(F)(F)F)cc(C(F)(F)F)c2)c1=O` [Compound 206, 2-(4-(((1-(3,5-bis(trifluoromethyl)benzyl)-5-oxo-4-propyl-4,5-dihydro-1H-1,2,4-triazol-3-yl)methoxy)carbonyl)phenoxy)-2-methylpropanoic acid], the EC50 on Gal-4 hPPARγ was above 1000 nM; on Gal-4 hPPARβ/δ, above 1000 nM; on Gal-4 hPPARα, 201 to 999 nM.

Turning to `CCCn1c(COC(=O)c2ccc(SC(C)(C)C(=O)O)cc2)nn(Cc2ccc(Br)cc2)c1=O` [Compound 164, 2-(4-(((1-(4-bromobenzyl)-5-oxo-4-propyl-4,5-dihydro-1H-1,2,4-triazol-3-yl)methoxy)carbonyl)phenylthio)-2-methylpropanoic acid], the EC50 was above 1000 nM at Gal-4 hPPARγ, above 1000 nM at Gal-4 hPPARβ/δ and 1 to 50 nM on Gal-4 hPPARα.

Turning to `CC(C)(Sc1ccc(C(=O)OCc2cnn(Cc3ccc(-c4ccccc4)cc3)c2)cc1)C(=O)O` [Compound 22, 2-(4-(((1-(biphenyl-4-ylmethyl)-1H-pyrazol-4-yl)methoxy)carbonyl)phenylthio)-2-methylpropanoic acid], the EC50 on Gal-4 hPPARγ was above 1000 nM; on Gal-4 hPPARβ/δ it was above 1000 nM; on Gal-4 hPPARα, 51 to 200 nM.

As to `CC(C)(Sc1ccc(C(=O)OCc2cnn(Cc3ccc4ccccc4c3)c2)cc1)C(=O)O` [Compound 26, 2-methyl-2-(4-(((1-(naphthalen-2-ylmethyl)-1H-pyrazol-4-yl)methoxy)carbonyl)phenylthio)propanoic acid], the EC50 was above 1000 nM at Gal-4 hPPARγ, above 1000 nM at Gal-4 hPPARβ/δ and 1 to 50 nM on Gal-4 hPPARα.

In the case of `Cc1ccc(Cn2nc(COC(=O)c3ccc(SC(C)(C)C(=O)O)cc3)[nH]c2=O)cc1` [Compound 261, 4-(1-Carboxy-1-methyl-ethylsulfanyl)-benzoic acid 1-(4-methyl-benzyl)-5-oxo-4,5-dihydro-1H-1,2,4-triazol-3-ylmethyl ester], the results for the EC50 on Gal-4 hPPARγ, on Gal-4 hPPARβ/δ and at Gal-4 hPPARα were above 1000 nM, above 1000 nM and 51 to 200 nM, respectively.

Consider `C[C@H](OC(=O)c1ccc(SC(C)(C)C(=O)O)cc1)c1cn(Cc2ccc(C(F)(F)F)cc2)nn1` [Compound 97, (S)-2-methyl-2-(4-((1-(1-(4-(trifluoromethyl)benzyl)-1H-1,2,3-triazol-4-yl)ethoxy)carbonyl)phenylthio)propanoic acid], for which the EC50 is above 1000 nM on Gal-4 hPPARγ, above 1000 nM on Gal-4 hPPARβ/δ and 201 to 999 nM on Gal-4 hPPARα.

`C[C@@H](OC(=O)c1ccc(SC(C)(C)C(=O)O)cc1)c1cn(Cc2cccc(C(F)(F)F)c2)nn1` [Compound 139, 4-(1-Carboxy-1-methyl-ethylsulfanyl)-benzoic acid (R)-1-[1-(3-trifluoromethyl-benzyl)-1H-1,2,3-triazol-4-yl]-ethyl ester]: the results for the EC50 on Gal-4 hPPARγ, at Gal-4 hPPARβ/δ and at Gal-4 hPPARα were above 1000 nM, above 1000 nM and 1 to 50 nM, respectively.

Consider `CSc1ccc(Cn2cc(COC(=O)c3ccc(SC(C)(C)C(=O)O)cc3)cn2)cc1` [Compound 20, 2-methyl-2-(4-(((1-(4-(methylthio)benzyl)-1H-pyrazol-4-yl)methoxy)carbonyl)phenylthio)propanoic acid], for which the figures for the EC50 at Gal-4 hPPARγ, at Gal-4 hPPARβ/δ and at Gal-4 hPPARα were above 1000 nM, above 1000 nM and 1 to 50 nM, respectively.

In the case of `CCCn1c(COC(=O)c2ccc(OC(C)(C)C(=O)O)c(C)c2)nn(Cc2ccc(C(C)(C)C)cc2)c1=O` [Compound 266, 4-(1-Carboxy-1-methyl-ethoxy)-3-methyl-benzoic acid 1-(4-tert-butyl-benzyl)-5-oxo-4-propyl-4,5-dihydro-1H-1,2,4-triazol-3-ylmethyl ester], the EC50 was above 1000 nM on Gal-4 hPPARγ, above 1000 nM on Gal-4 hPPARβ/δ and 201 to 999 nM on Gal-4 hPPARα.

As to `Cc1ccc(Cn2cc(CCOC(=O)c3ccc(SC(C)(C)C(=O)O)cc3)nn2)cc1` [Compound 145, 4-(1-Carboxy-1-methyl-ethylsulfanyl)-benzoic acid 2-[1-(4-methyl-benzyl)-1H-1,2,3-triazol-4-yl]-ethyl ester], the EC50 at Gal-4 hPPARγ is above 1000 nM; at Gal-4 hPPARβ/δ, above 1000 nM; on Gal-4 hPPARα it was 201 to 999 nM.

On to `CC(C)(Sc1ccc(C(=O)OCc2cn(Cc3ccc(C(F)(F)F)cc3)nn2)cc1)C(=O)O` [Compound 102, 2-methyl-2-(4-(((1-(4-(trifluoromethyl)benzyl)-1H-1,2,3-triazol-4-yl)methoxy)carbonyl)phenylthio)propanoic acid], for which the EC50 is above 1000 nM on Gal-4 hPPARγ, above 1000 nM at Gal-4 hPPARβ/δ and 51 to 200 nM on Gal-4 hPPARα.
